Data taken from US10988433B2, “Cyclohexyl GPR40 agonists for the treatment of type II diabetes” (Janssen Pharmaceutica NV, priority 2016, dated 2021).

How the values were obtained:
rat GPR40 = target: T1, rat GPR40 (Rattus norvegicus, UniProt Q8K3T4); experiment: GPR40 calcium flux assay, HEK293 cells stably expressing rat GPR40; format: cell-based; conditions: transfected HEK293 cells stably expressing rat GPR40, Fluo 8 dye, read-out: rGPR40 Ca2+ Assay EC50
T1 construct: expressed in transfected cells
T1 sequence (Q8K3T4 whole entry): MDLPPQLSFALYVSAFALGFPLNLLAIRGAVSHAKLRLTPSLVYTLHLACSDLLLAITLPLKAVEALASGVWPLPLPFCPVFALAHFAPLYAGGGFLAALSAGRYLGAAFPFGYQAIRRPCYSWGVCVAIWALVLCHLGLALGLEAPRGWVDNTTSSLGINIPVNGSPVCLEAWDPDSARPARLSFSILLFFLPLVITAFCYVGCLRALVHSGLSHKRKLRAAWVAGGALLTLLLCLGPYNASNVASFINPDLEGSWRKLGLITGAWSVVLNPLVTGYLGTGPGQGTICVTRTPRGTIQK
Procedure: (§1) Compounds were tested in a calcium flux assay using transfected HEK293 cells stably expressing either human GPR40 or rat GPR40. Human GPR40 expressing cells were cultured in DMEM-High Glucose media supplemented with 10% fetal bovine serum, 1×L-Glutamine, 1×Penicillin/Streptomycin and 500 μg/mL G418. Rat GPR40 expressing cells were cultured in DMEM-High Glucose media supplemented with 10% fetal bovine serum and 1 μg/mL puromycin. Cells were plated into poly-D-lysine coated 384-well plates and cultured overnight in a 37° C. humidified tissue culture incubator under 5% CO2/[…] atmosphere. On the day of the experiment, the culture media was replaced with assay buffer (HBSS, 20 mM HEPES, 0.1% BSA) and the cells incubated at 37° C. for 1 h. Calcium-sensitive fluorescent dye (Fluo 8 No-Wash Calcium Dye, ABD Bioquest) was then added and the cells incubated for another 30 min at 37° C. followed by 15 min at room temperature while protected from the light. The cell plate and a plate of diluted compounds of Formula (I) were loaded into a fluorescent plate reader that added compounds onto the cells while measuring the fluorescence intensity of each well. The plate reader recorded fluorescence intensity at 1 second intervals for 8 min and provided the data for analysis in an Excel format. EC50 values were calculated using Prism (GraphPad) software.

human GPR40 = target: T2, human GPR40 (Homo sapiens, UniProt O14842); experiment: GPR40 calcium flux assay, HEK293 cells stably expressing human GPR40; format: cell-based; conditions: transfected HEK293 cells stably expressing human GPR40, Fluo 8 dye, read-out: hGPR40 Ca2+ Assay EC50
T2 construct: expressed in transfected cells
T2 sequence (O14842 whole entry): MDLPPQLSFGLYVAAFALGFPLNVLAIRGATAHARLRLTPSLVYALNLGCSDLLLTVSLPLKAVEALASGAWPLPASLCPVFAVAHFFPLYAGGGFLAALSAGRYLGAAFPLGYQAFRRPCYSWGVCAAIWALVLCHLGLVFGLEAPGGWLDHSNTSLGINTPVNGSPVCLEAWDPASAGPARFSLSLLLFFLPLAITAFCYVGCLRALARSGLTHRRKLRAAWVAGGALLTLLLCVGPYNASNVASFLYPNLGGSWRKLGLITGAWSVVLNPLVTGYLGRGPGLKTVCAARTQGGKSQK
Procedure: as §1

| SMILES | EC50 (rat GPR40) [nM] | EC50 (human GPR40) [nM] |
| --- | --- | --- |
| COc1ccc(F)c([C@H]2CC[C@@H](COc3cccc([C@H](CC(=O)O)C4CC4)c3)CC2)c1 [Cpd 37, (R)-3-Cyclopropyl-3-(3-(((1s,4S)-4-(2-fluoro-5-methoxyphenyl)cyclohexyl)methoxy)phenyl)propanoic acid] | 1320 | 687 |
| COc1ccc(F)c([C@H]2CC[C@H](COc3ccnc(C(CC(=O)O)C4CC4)c3)CC2)c1 (stereo partly drawn) [Cpd 34, 3-Cyclopropyl-3-(4-(((1r,4r)-4-(2-fluoro-5-methoxyphenyl)cyclohexyl)methoxy)pyridin-2-yl)propanoic acid] | 282 | 62.4 |
| COc1cc(C2CCC(COc3cccc([C@@H](CC(=O)O)C4CC4)c3)C(C)C2)c(F)cn1 (stereo partly drawn) [Cpd 33, (3S)-3-Cyclopropyl-3-(3-((4-(5-fluoro-2-methoxypyridin-4-yl)-2-methylcyclohexyl)methoxy)phenyl)propanoic acid] | 17.3 | 3.7 |
| COc1ccc(F)c(C2CCC(COc3cccc([C@H](C4CC4)C(F)C(=O)O)c3)CC2)c1 (stereo partly drawn) [Cpd 54, (3S)-3-Cyclopropyl-2-fluoro-3-(3-(((1r,4S)-4-(2-fluoro-5-methoxyphenyl)cyclohexyl)methoxy)phenyl)propanoic acid] | 1.4 | 0.5 |
| COc1ccc(F)c([C@]2(F)CC[C@@H](COc3cccc([C@@H](CC(=O)O)C4CC4)c3)CC2)c1 [Cpd 20, (S)-3-Cyclopropyl-3-(3-(((1s,4R)-4-fluoro-4-(2-fluoro-5-methoxyphenyl)cyclohexyl)methoxy)phenyl)propanoic acid] | 40.7 | 9.9 |
| COc1cc(C2CCC(COc3cccc([C@H](C4CC4)C(C)(F)C(=O)O)c3)CC2)ccn1 (mixture of isomers) [Cpd 69, (3S)-3-Cyclopropyl-2-fluoro-3-(3-((4-(2-methoxypyridin-4-yl)cyclohexyl)methoxy)phenyl)-2-methylpropanoic acid] | 1.5 | 1.2 |
| COc1cc([C@H]2CC[C@H](COc3cc([C@@H](Cc4nnn[nH]4)C4CC4)ccn3)CC2)c(F)cn1 [Cpd 43, 4-((1S,4r)-4-(((4-((S)-1-Cyclopropyl-2-(1H-tetrazol-5-yl)ethyl)pyridin-2-yl)oxy)methyl)cyclohexyl)-5-fluoro-2-methoxypyridine] | 464 | 281 |
| COc1ccc(F)c([C@H]2CC[C@@H](COc3cccc([C@@H](Cc4nnn[nH]4)C4CC4)c3)CC2)c1 [Cpd 39, 5-((S)-2-Cyclopropyl-2-(3-(((1s,4R)-4-(2-fluoro-5-methoxyphenyl)cyclohexyl)methoxy)phenyl)ethyl)-1H-tetrazole] | 3150 | 600 |
| COc1ccc(F)c([C@H]2CC[C@@H](COc3cccc([C@H](C4CC4)[C@H](C)C(=O)O)c3)CC2)c1 [Cpd 53, (2S,3R)-3-cyclopropyl-3-(3-(((1s,4S)-4-(2-fluoro-5-methoxyphenyl)cyclohexyl)methoxy)phenyl)-2-methylpropanoic acid] | 7.7 | 2 |
| COc1ccc(F)c([C@H]2CC[C@@H](COc3cc([C@H](CC(=O)O)C4CC4)ccn3)CC2)c1 [Cpd 41, (R)-3-Cyclopropyl-3-(2-(((1s,4S)-4-(2-fluoro-5-methoxyphenyl)cyclohexyl)methoxy)pyridin-4-yl)propanoic acid] | 43 | 18 |
| COc1ccc(F)c([C@]2(OC)CC[C@@H](COc3cccc([C@@H](CC(=O)O)C4CC4)c3)CC2)c1 [Cpd 11, (S)-3-Cyclopropyl-3-(3-(((1s,4R)-4-(2-fluoro-5-methoxyphenyl)-4-methoxycyclohexyl)methoxy)phenyl)propanoic acid] | 18.4 | 2.1 |
| COc1cc([C@H]2CC[C@H](COc3cc([C@H](CC(=O)O)C4CC4)ccn3)CC2)c(F)cn1 [Cpd 24, (R)-3-Cyclopropyl-3-(2-(((1r,4R)-4-(5-fluoro-2-methoxypyridin-4-yl)cyclohexyl)methoxy)pyridin-4-yl)propanoic acid] | 20.7 | 8.4 |
| COc1cc([C@H]2CC[C@H](COc3cncc(C(CC(=O)O)C4CC4)c3)CC2)c(F)cn1 (stereo partly drawn) [Cpd 22, 3-Cyclopropyl-3-(5-(((1r,4r)-4-(5-fluoro-2-methoxypyridin-4-yl)cyclohexyl)methoxy)pyridin-3-yl)propanoic acid] | 51.9 | 17.6 |
| COc1ccc(F)c([C@H]2CC[C@H](COc3cncc(C(CC(=O)O)C4CC4)c3)CC2)c1 (stereo partly drawn) [Cpd 21, 3-Cyclopropyl-3-(5-(((1r,4r)-4-(2-fluoro-5-methoxyphenyl)cyclohexyl)methoxy)pyridin-3-yl)propanoic acid] | 35.3 | 12 |
| COc1cncc(C2CCC(COc3cc([C@@H](CC(=O)O)C4CC4)ccn3)CC2)n1 (stereo partly drawn) [Cpd 46, (S)-3-Cyclopropyl-3-(2-((4-(6-methoxypyrazin-2-yl)cyclohexyl)methoxy)pyridin-4-yl)propanoic acid] | > 10000 | 5800 |
| COc1ccc(F)c([C@H]2CC[C@H](COc3cccc([C@H](C4CC4)[C@](C)(F)C(=O)O)c3)CC2)c1 [Cpd 60, (2S,3S)-3-Cyclopropyl-2-fluoro-3-(3-(((1r,4S)-4-(2-fluoro-5-methoxyphenyl)cyclohexyl)methoxy)phenyl)-2-methylpropanoic acid] | 6.88 | 6.05 |

Continued by falling EC50 (rat GPR40), values first:

| EC50 (rat GPR40) [nM] | EC50 (human GPR40) [nM] | SMILES |
| --- | --- | --- |
| 5320 | 1840 | COc1ccc(F)c([C@H]2CC[C@@H](COc3ccnc(C(CC(=O)O)C4CC4)c3)CC2)c1 (stereo partly drawn) [Cpd 35, 3-Cyclopropyl-3-(4-(((1s,4s)-4-(2-fluoro-5-methoxyphenyl)cyclohexyl)methoxy)pyridin-2-yl)propanoic acid] |
| 401 | 3100 | CC#CC(CC(=O)O)c1cccc(OC[C@H]2CC[C@@H](c3cc(OC)ccc3F)CC2)c1 (stereo partly drawn) [Cpd 42, 3-(3-(((1 s,4s)-4-(2-Fluoro-5-methoxyphenyl)cyclohexyl)methoxy)phenyl)hex-4-ynoic acid] |
| 76 | 26.9 | COc1cc([C@H]2CC[C@@H](COc3cccc([C@@H](CC(=O)O)C4CC4)c3)CC2)c(F)cn1 [Cpd 10, (S)-3-Cyclopropyl-3-(3-(((1s,4R)-4-(5-fluoro-2-methoxypyridin-4-yl)cyclohexyl)methoxy)phenyl)propanoic acid] |
| 54.2 | 26.1 | COc1cc([C@H]2CC[C@H](COc3ccnc(C(CC(=O)O)C4CC4)c3)CC2)c(F)cn1 (stereo partly drawn) [Cpd 31, 3-Cyclopropyl-3-(4-(((1r,4r)-4-(5-fluoro-2-methoxypyridin-4-yl)cyclohexyl)methoxy)pyridin-2-yl)propanoic acid] |
| 19.8 | 10.9 | COc1ccc(F)c([C@H]2CC[C@H](COc3cc([C@H](CC(=O)O)C4CC4)ccn3)CC2)c1 [Cpd 26, (R)-3-cyclopropyl-3-(2-(((1r,4r)-4-(2-fluoro-5-methoxyphenyl)cyclohexyl)methoxy)pyridin-4-yl)propanoic acid] |
| 10.4 | 1.72 | COc1ccc(F)c([C@H]2CC[C@H](CNc3cccc([C@H](C4CC4)C(C)(F)C(=O)O)c3)CC2)c1 (stereo partly drawn) [Cpd 77, (3S)-3-Cyclopropyl-2-fluoro-3-(3-((((1r,4S)-4-(2-fluoro-5-methoxyphenyl)cyclohexyl)methyl)amino)phenyl)-2-methylpropanoic acid] |
| 1.4 | 0.5 | COc1cc([C@H]2CC[C@H](COc3cc(C(CC(=O)O)C4CC4)ccn3)CC2)c(F)cn1 (stereo partly drawn) [Cpd 8, 3-Cyclopropyl-3-(2-(((1r,4r)-4-(5-fluoro-2-methoxypyridin-4-yl)cyclohexyl)methoxy)pyridin-4-yl)propanoic acid] |
| 1.2 | 0.5 | CCc1ccc(F)c([C@H]2CC[C@H](COc3cccc([C@H](C4CC4)[C@H](C)C(=O)O)c3)CC2)c1 [Cpd 57, (2S,3R)-3-cyclopropyl-3-(3-(((1r,4R)-4-(5-ethyl-2-fluorophenyl)cyclohexyl)methoxy)phenyl)-2-methylpropanoic acid] |
| 0.71 | 0.18 | COc1ccc(F)c(C2=CCC(COc3cccc([C@H](C4CC4)[C@@](C)(F)C(=O)O)c3)CC2)c1 (stereo partly drawn) [Cpd 76, (2R,3S)-3-Cyclopropyl-2-fluoro-3-(3-((2′-fluoro-5′-methoxy-2,3,4,5-tetrahydro-[1,1′-biphenyl]-4-yl)methoxy)phenyl)-2-methylpropanoic acid] |
| 0.56 | 0.19 | COc1ccc(Cl)c(C2CCC(COc3cccc([C@H](C4CC4)[C@@](C)(F)C(=O)O)c3)CC2)c1 (stereo partly drawn) [Cpd 64, (2R,3S)-3-(3-((4-(2-Chloro-5-methoxyphenyl)cyclohexyl)methoxy)phenyl)-3-cyclopropyl-2-fluoro-2-methylpropanoic acid] |
| 0.4 | 0.2 | COc1ccc(F)c([C@H]2CC[C@H](COc3cccc([C@H](C4CC4)[C@H](C)C(=O)O)c3)CC2)c1 [Cpd 52, (2S,3R)-3-cyclopropyl-3-(3-(((1r,4R)-4-(2-fluoro-5-methoxyphenyl)cyclohexyl)methoxy)phenyl)-2-methylpropanoic acid] |
